Measurements from BigSolDB 2.1.

NS(=O)(=O)Cc1noc2ccccc12
solubility (mole fraction)
Details | 273.15 K | 278.15 K | 283.15 K | 288.15 K | 293.15 K | 298.15 K | 303.15 K | 308.15 K | 313.15 K
in 1,4-dioxane | – | – | – | 0.024 | 0.0294 | 0.0354 | 0.0416 | 0.0488 | 0.0563
in 2-butanone | 0.0132 | 0.0154 | 0.0179 | 0.0209 | 0.0244 | 0.0282 | 0.0319 | 0.0358 | 0.0399
in DMF | 0.0192 | 0.0278 | 0.0374 | 0.0469 | 0.0575 | 0.0687 | 0.0812 | 0.0946 | 0.108
in acetonitrile | 0.00562 | 0.00691 | 0.00821 | 0.00982 | 0.0114 | 0.0131 | 0.0149 | 0.0171 | 0.0191
in cyclohexanone | 0.00739 | 0.00898 | 0.0109 | 0.0129 | 0.0155 | 0.0184 | 0.0218 | 0.0262 | 0.0307
in ethanol | 0.00112 | 0.00135 | 0.00159 | 0.00188 | 0.00221 | 0.00255 | 0.0029 | 0.0033 | 0.00373
in ethyl acetate | 0.00498 | 0.00558 | 0.00625 | 0.00704 | 0.00793 | 0.00882 | 0.0098 | 0.0108 | 0.0118
in isopropanol | 0.000617 | 0.000791 | 0.000996 | 0.00122 | 0.00146 | 0.00173 | 0.00207 | 0.00241 | 0.00274
in methanol | 0.00253 | 0.00274 | 0.00298 | 0.00326 | 0.00353 | 0.00387 | 0.00421 | 0.0046 | 0.005
in n-butanol | 0.00017 | 0.00026 | 0.000383 | 0.000528 | 0.000721 | 0.00095 | 0.00122 | 0.00148 | 0.00178
in n-propanol | 0.00041 | 0.000546 | 0.000697 | 0.000862 | 0.00105 | 0.00126 | 0.00149 | 0.00175 | 0.002
in toluene | 3.56e-05 | 5.05e-05 | 6.73e-05 | 8.69e-05 | 0.000106 | 0.000131 | 0.00016 | 0.000193 | 0.00023
